Experimental data taken from paper PMC5291411, “Cytotoxic conjugates of betulinic acid and substituted triazoles prepared by Huisgen Cycloaddition from 30-azidoderivatives” (PLoS ONE, 2017).

Columns and labels:
HCT116p53-/- = experiment: Cytotoxic MTS assay, HCT116p53-/-; assay type: cell-based; details: Homo sapiens, 72 h, p53 knock-down colorectal tumor
Source text: (§1) Cytotoxic activity of all synthesized compounds was investigated in vitro against eight human cancer cell lines and two non-tumor fibroblasts using the standard MTS test (Table 1). The cancer cell lines were derived from T-lymphoblastic leukemia CCRF-CEM, leukemia K562 and their multiresistant counterparts expressing P-glycoprotein, MRP1 and LRP proteins (CEM-DNR, K562-TAX), solid tumors including lung (A549) and colon (HCT116, HCT116p53-/-) carcinomas, osteosarcoma cell line (U2OS), and for comparison, tests were performed on two human non-cancer fibroblast cell lines (BJ, MRC-5).
(§2) Biological assays were performed in concordance with our previous publications [[29], [58]; [60]; [61]]. All cells (if not indicated otherwise) were purchased from the American Tissue Culture Collection (ATCC). The CCRF-CEM line is derived from T lymphoblastic leukemia, evincing high chemosenzitivity, K562 represent cells from an acute myeloid leukemia patient sample with bcr-abl translocation, U2OS line is derived from osteosarcoma, HCT116 is colorectal tumor cell line and its p53 gene knock-down counterpart (HCT116p53-/-, Horizon Discovery Ltd, UK) is a model of human cancers with p53 mutation frequently associated with poor prognosis, A549 line is lung adenocarcinoma. The daunorubicin resistant subline of CCRF-CEM cells (CEM-DNR bulk) and paclitaxel resistant subline K562-TAX were selected in our laboratory by the cultivation of maternal cell lines in increasing concentrations of daunorubicine or paclitaxel, respectively. The CEM-DNR bulk cells overexpress MRP-1 and P-glycoprotein protein, while K562-TAX cells overexpress P-glycoprotein only. Both proteins belong to the family of ABC transporters and are involved in the primary and/or acquired multidrug resistance phenomenon. MRC-5 and BJ cell lines were used as a non-tumor control and represent human fibroblasts. The cells were maintained in nunc/corning 80 cm^2 plastic tissue culture flasks and cultured in cell culture medium according to ATCC or Horizon recommendations (DMEM/RPMI 1640 with 5 g/L glucose, 2 mM glutamine, 100 U/mL penicillin, […] streptomycin, 10% fetal calf serum, and NaHCO3).
(§3) MTS assay was performed at Institute of Molecular and Translational Medicine by robotic platform (HighResBiosolutions). Cell suspensions were prepared and diluted according to the particular cell type and the expected target cell density (25000–35000 cells/mL based on cell growth characteristics). Cells were added by automatic pipetor (30 μL) into 384 well microtiter plates. All tested compounds were dissolved in 100% DMSO and four-fold dilutions of the intended test concentration were added in 0.15 μL aliquots at time zero to the microtiter plate wells by the echoacustic non-contact liquid handler Echo550 (Labcyte). The experiments were performed in technical duplicates and three biological replicates at least. The cells were incubated with the tested compounds for 72 h at 37°C, in a 5% CO2 atmosphere at 100% humidity. At the end of the incubation period, the cells were assayed by using the MTS test. Aliquots (5 μL) of the MTS stock solution were pipetted into each well and incubated for additional 1–4 h. After this incubation period, the optical density (OD) was measured at 490 nm with an Envision reader (Perkin Elmer). Tumor cell survival (TCS) was calculated by using the following equation: TCS = (ODdrug-exposed well/mean ODcontrol wells) × 100%. The IC50 value, the drug concentration that is lethal to 50% of the tumor cells, was calculated from the appropriate dose-response curves in Dotmatics software.

HCT116 = experiment: Cytotoxic MTS assay, HCT116; assay type: cell-based; details: Homo sapiens, HCT-116, 72 h, colorectal tumor
Source text: as §1, §2, §3

CCRF-CEM = experiment: Cytotoxic MTS assay, CCRF-CEM; assay type: cell-based; details: Homo sapiens, 72 h, T-lymphoblastic leukemia
Source text: as §1, §2, §3

BJ = experiment: Cytotoxic MTS assay, BJ fibroblasts; assay type: cell-based; details: Homo sapiens, 72 h, non-tumor fibroblasts
Source text: as §1, §2, §3

CEM-DNR = experiment: Cytotoxic MTS assay, CEM-DNR; assay type: cell-based; details: Homo sapiens, 72 h, daunorubicin resistant subline of CCRF-CEM
Source text: as §1, §2, §3

U2OS = experiment: Cytotoxic MTS assay, U2OS; assay type: cell-based; details: Homo sapiens, 72 h, osteosarcoma
Source text: as §1, §2, §3

A549 = experiment: Cytotoxic MTS assay, A549; assay type: cell-based; details: Homo sapiens, 72 h, lung adenocarcinoma
Source text: as §1, §2, §3

K562-TAX = experiment: Cytotoxic MTS assay, K562-TAX; assay type: cell-based; details: Homo sapiens, 72 h, paclitaxel resistant subline of K562
Source text: as §1, §2, §3

MRC-5 = experiment: Cytotoxic MTS assay, MRC-5 fibroblasts; assay type: cell-based; details: Homo sapiens, MRC5, 72 h, non-tumor fibroblasts
Source text: as §1, §2, §3

K562 = experiment: Cytotoxic MTS assay, K562; assay type: cell-based; details: Homo sapiens, 72 h, leukemia
Source text: as §1, §2, §3

CCRF-CEM cells [1] = experiment: BrU incorporation analysis (RNA synthesis); assay type: cell-based, human; set-up: RNA synthesis: unit not given here
Procedure: (§4) Together with the treated cells, control sample containing vehicle was harvested at the same time point after 24 h. After another 24 hours, cells were then washed with cold PBS and fixed in 70% ethanol added dropwise and stored overnight at -20°C. Afterwards, cells were washed in hypotonic citrate buffer, treated with RNAse (50 μg/mL) and stained with propidium iodide. Flow cytometer using a 488 nm single beam laser (Becton Dickinson) was used for measurement. Cell cycle was analyzed in the program ModFitLT (Verity), and apoptosis was measured in logarithmic model expressing percentage of the particles with propidium content lower than cells in G0/G1 phase (<G1) of the cell cycle. Half of the sample was used for pH3^Ser10 antibody (Sigma) labeling and subsequent flow cytometry analysis of mitotic cells.
Cells were cultured and treated as above. Before harvesting, pulse-labeling with 1 mM 5-bromouridine (BrU) for 30 min followed. The cells were then fixed in 1% buffered paraformaldehyde with 0.05% of NP-40 in room temperature for 15 min, and then stored in 4°C overnight. Before measurement, they werewashed in PBS with 1% glycin, washed in PBS again, and stained by primary anti-BrDU antibody crossreacting to BrU (Exbio) for 30 min at room temperature in the dark. After another washing step in PBS cells were stained by secondary antimouse-FITC antibody (Sigma). Following the staining, cells were washed with PBS and fixed with 1% PBS buffered paraformaldehyde with 0.05% of NP-40 for 1 hour. Cells were washed by PBS, incubated with propidium iodide (0.1 mg/mL) and RNAse A (0.5 mg/mL) for 1 h at room temperature in the dark, and finally analyzed by flow cytometry using a 488 nm single beam laser (FACS Calibur, Becton Dickinson).

CCRF-CEM cells [2] = experiment: BrDU incorporation analysis (DNA synthesis); assay type: cell-based, human; set-up: DNA synthesis: unit not given here
Procedure: as §4
For this analysis, the same procedure of cultivation as previously was used. Before harvesting, 10 μM 5-bromo-2-deoxyuridine (BrDU), was added to the cells for puls-labeling for 30 min. Cells were fixed with ice-cold 70% ethanol and stored overnight. Before the analysis, cellswere washed with PBS, and resuspended in 2 M HCl for 30 min at room temperature to denature their DNA. Following neutralization with 0.1 M Na2B4O7 (Borax), cells were washed with PBS containing 0.5% Tween-20 and 1% BSA. Staining with primary anti-BrDU antibody (Exbio) for 30 min at room temperature in the dark followed. Cells were than washed with PBS and stained with secondary antimouse-FITC antibody (Sigma). Cells were then washed with PBS again and incubated with propidium iodide (0.1 mg/mL) and RNAse A (0.5 mg/mL) for 1 h at room temperature in the dark and afterwards analyzed by flow cytometry using a 488 nm single beam laser (FACSCalibur, Becton Dickinson).

CCRF-CEM cells [3] = experiment: pH3Ser10 antibody labeling, flow cytometry of mitotic cells; assay type: cell-based, human
Procedure: as §4

CCRF-CEM cells [4] = experiment: Cell cycle and apoptosis analysis (propidium iodide flow cytometry); assay type: cell-based, human
Procedure: as §4

Structure (SMILES) | IC50 (HCT116p53-/-) [µM] | IC50 (HCT116) [µM] | IC50 (CCRF-CEM) [µM] | IC50 (BJ) [µM] | IC50 (CEM-DNR) [µM] | IC50 (U2OS) [µM] | IC50 (A549) [µM] | IC50 (K562-TAX) [µM] | IC50 (MRC-5) [µM] | IC50 (K562) [µM] | effect on RNA synthesis (in words) (CCRF-CEM cells [1]) | RNA synthesis (CCRF-CEM cells [1]; 1 × IC50, BrU incorporation) | RNA synthesis (CCRF-CEM cells [1]; 5 × IC50, BrU incorporation) | effect on DNA synthesis (in words) (CCRF-CEM cells [2]) | DNA synthesis (CCRF-CEM cells [2]; 1 × IC50, BrDU incorporation) | DNA synthesis (CCRF-CEM cells [2]; 5 × IC50, BrDU incorporation) | pH3Ser10 (%) (CCRF-CEM cells [3]; 1 × IC50) | pH3Ser10 (%) (CCRF-CEM cells [3]; 5 × IC50) | G0/G1 (%) (CCRF-CEM cells [4]; 1 × IC50) | G2/M (%) (CCRF-CEM cells [4]; 1 × IC50) | other results
C=C(CBr)[C@@H]1CC[C@]2(C(=O)O)CC[C@]3(C)C(CCC4[C@@]5(C)CC[C@H](O[Si](c6ccccc6)(c6ccccc6)c6ccccc6)C(C)(C)C5CC[C@]43C)C12 (stereo partly drawn) [Compound 5, 3β-O-Triphenylsilyl-30-bromobetulinic acid] | 31.1 | 35.6 | > 50 | > 50 | 13.2 | 27.9 | > 50 | 12.2 | > 50 | > 50 |  |  |  |  |  |  |  |  |  |  | melting point: 208 to 210 °C
C=C(Cn1cc(-c2ccccn2)nn1)[C@@H]1CC[C@]2(C(=O)O)CC[C@]3(C)C(CCC4[C@@]5(C)CC[C@H](OC(C)=O)C(C)(C)C5CC[C@]43C)C12 (some centres unmarked) [Compound 9c] | 13.7 | 30.3 | 9 | 29.5 | 14.4 | 16 | 13.2 | 13.8 | 27.6 | 22.1 | inhibiting | 25.4 | 0.40 | inhibiting | 20.3 | 2.90 | 1.47 | 0.89 | 48.9 | 20.3 | S (%) (CCRF-CEM cells [4]; 1 × IC50): 30.9%; Sub G1 (%) (CCRF-CEM cells [4]; 1 × IC50): 7.2%; G0/G1 (%) (CCRF-CEM cells [4]; 5 × IC50): 40.5%; G2/M (%) (CCRF-CEM cells [4]; 5 × IC50): 21.0%; S (%) (CCRF-CEM cells [4]; 5 × IC50): 38.5%; Sub G1 (%) (CCRF-CEM cells [4]; 5 × IC50): 65.6%
C=C(Cn1cc(-c2ccccc2C=O)nn1)[C@@H]1CC[C@]2(C(=O)O)CC[C@]3(C)C(CCC4[C@@]5(C)CC[C@H](O)C(C)(C)C5CC[C@]43C)C12 (some centres unmarked) [Compound 11b] | 26.9 | 26.3 | 8.5 | > 50 | 11.5 | > 50 | > 50 | 13.7 | > 50 | > 50 | inhibiting | 48.3 | 38.1 | inhibiting | 20.0 | 6.40 | 0.88 | 1.19 | 59.0 | 15.7 | S (%) (CCRF-CEM cells [4]; 1 × IC50): 25.3%; G0/G1 (%) (CCRF-CEM cells [4]; 5 × IC50): 45.5%; G2/M (%) (CCRF-CEM cells [4]; 5 × IC50): 19.1%; S (%) (CCRF-CEM cells [4]; 5 × IC50): 35.4%; Sub G1 (%) (CCRF-CEM cells [4]; 5 × IC50): 65.6%
